From patent EP3623369A1, “NOVEL MORPHOLINYL AMINE COMPOUNDS FOR THE TREATMENT OF AUTOIMMUNE DISEASE” (F. Hoffmann-La Roche AG, priority 2018, dated 2020) come the findings set out here.

For the assay, the target named is T1, hTLR9 (Homo sapiens, UniProt Q9NR96).
T1 sequence (Q9NR96 26-1032): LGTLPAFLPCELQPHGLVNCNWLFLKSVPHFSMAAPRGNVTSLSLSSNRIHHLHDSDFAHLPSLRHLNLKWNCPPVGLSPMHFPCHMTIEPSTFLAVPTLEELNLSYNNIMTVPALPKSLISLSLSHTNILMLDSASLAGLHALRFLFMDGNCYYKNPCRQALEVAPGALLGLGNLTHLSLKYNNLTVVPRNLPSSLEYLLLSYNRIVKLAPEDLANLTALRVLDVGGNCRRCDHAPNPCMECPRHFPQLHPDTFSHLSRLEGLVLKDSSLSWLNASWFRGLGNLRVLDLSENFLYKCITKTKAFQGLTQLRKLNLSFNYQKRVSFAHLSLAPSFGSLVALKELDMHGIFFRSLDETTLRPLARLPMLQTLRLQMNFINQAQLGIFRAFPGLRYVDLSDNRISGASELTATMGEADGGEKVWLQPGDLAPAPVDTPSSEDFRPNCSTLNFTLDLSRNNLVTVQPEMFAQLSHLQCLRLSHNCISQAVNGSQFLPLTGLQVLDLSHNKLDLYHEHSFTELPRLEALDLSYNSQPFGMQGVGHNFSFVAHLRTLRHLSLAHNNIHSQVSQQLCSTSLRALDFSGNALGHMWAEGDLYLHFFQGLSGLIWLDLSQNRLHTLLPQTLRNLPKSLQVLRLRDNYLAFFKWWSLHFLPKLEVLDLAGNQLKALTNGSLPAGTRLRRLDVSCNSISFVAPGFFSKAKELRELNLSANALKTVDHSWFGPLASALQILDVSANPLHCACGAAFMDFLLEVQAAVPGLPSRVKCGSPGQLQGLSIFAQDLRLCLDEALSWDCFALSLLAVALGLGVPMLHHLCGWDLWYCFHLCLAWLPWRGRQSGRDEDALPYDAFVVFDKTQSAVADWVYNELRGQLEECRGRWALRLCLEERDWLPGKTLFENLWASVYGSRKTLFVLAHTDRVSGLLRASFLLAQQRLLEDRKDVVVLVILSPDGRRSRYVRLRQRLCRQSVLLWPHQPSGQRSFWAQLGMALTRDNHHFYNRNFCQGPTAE
Put plainly: HEK293-Blue-hTLR-9 cells assay (SEAP reporter, ODN2006 stimulation). In kind it is cell-based. To be noted: HEK293-Blue-hTLR9 cells, ODN2006, 20 hrs; 0.032 is the lowest tested concentration; read-out: HEK/hTLR9 IC50. Here is the method:
The following tests were carried out in order to determine the activity of the compounds of formula (I) or (Ia) in HEK293-Blue-hTLR-7/8/9 cells assay.
HEK293-Blue-hTLR-9 cells assay:
A stable HEK293-Blue-hTLR-9 cell line was purchased from InvivoGen (Cat.#: hkb-htlr9, San Diego, California, USA). These cells were originally designed for studying the stimulation of human TLR9 by monitoring the activation of NF-κB. A SEAP (secreted embryonic alkaline phosphatase) reporter gene was placed under the control of the IFN-β minimal promoter fused to five NF-κB and AP-1-binding sites. The SEAP was induced by activating NF-κB and AP-1 via stimulating HEK-Blue hTLR9 cells with TLR9 ligands. Therefore the reporter expression was declined by TLR9 antagonist under the stimulation of a ligand, such as ODN2006 (Cat.#: tlrl-2006-1, Invivogen, San Diego, California, USA), for incubation of 20 hrs. The cell culture supernatant SEAP reporter activity was determined using QUANTI-Blue™ kit (Cat.#: rep-qb1, Invivogen, San Diego, California, USA) at a wavelength of 640 nm, a detection medium that turns purple or blue in the presence of alkaline phosphatase.
HEK293-Blue-hTLR9 cells were incubated at a density of 250,000∼450,000 cells/mL in a volume of 170 µL in a 96-well plate in Dulbecco's Modified Eagle's medium (DMEM) containing 4.5 g/L glucose, 50 U/mL penicillin, […], […], 2 mM L-glutamine, 10% (v/v) heat-inactivated fetal bovine serum with addition of 20 µL test compound in a serial dilution in the presence of final DMSO at 1% and 10 µL of 20uM ODN2006 in above DMEM, perform incubation under 37 °C in a CO2 incubator for 20 hrs. Then 20 µL of the supernatant from each well was incubated with 180 µL Quanti-blue substrate solution at 37 °C for 2 hrs and the absorbance was read at 620∼655 nm using a spectrophotometer. The signalling pathway that TLR9 activation leads to downstream NF-κB activation has been widely accepted, and therefore similar reporter assay was modified for evaluating TLR9 antagonist.
For “3-fluoro-4-[(2R,6S)-2-methyl-6-[(5-piperazin-1-ylisoindolin-2-yl)methyl]morpholin-4-yl]pyrazolo[1,5-a]pyridine-7-carbonitrile [Example 7]”, the IC50 amounted to 91 nM.

As for “5-[(2S,6R)-2-[[5-[3-(hydroxymethyl)piperazin-1-yl]isoindolin-2-yl]methyl]-6-methyl-morpholin-4-yl]quinoline-8-carbonitrile [Example 85]”, the IC50 was 51 nM.

Take `C[C@@H]1CN(c2ccc3c(c2)CN(C[C@H]2CN(c4ccc(C#N)c5ncccc45)C[C@@H](C)O2)C3)C[C@@H](C)N1` (mixture of isomers) [Example 57, Trans-5-[(2R,6S)-2-methyl-6-[[5-[3,5-dimethylpiperazin-1-yl]isoindolin-2-yl]methyl]morpholin-4-yl]quinoline-8-carbonitrile]: the IC50 came to 98 nM.

Consider `C[C@@H]1CN(c2ccc(C#N)n3nccc23)C[C@H](CN2Cc3ccc(N4CCNCC4)cc3C2)O1` [Example 4, 4-[(2R,6S)-2-methyl-6-[(5-piperazin-1-ylisoindolin-2-yl)methyl]morpholin-4-yl]pyrazolo[1,5-a]pyridine-7-carbonitrile], for which the IC50 came to 55 nM.

In the case of `C[C@@H]1CN(c2ccc(C#N)n3nccc23)C[C@H](CN2Cc3ccc(C4CCNCC4)cc3C2)O1` [Example 8, 4-[(2R,6S)-2-methyl-6-[[5-(4-piperidyl)isoindolin-2-yl]methyl]morpholin-4-yl]pyrazolo[1,5-a]pyridine-7-carbonitrile], the IC50 was 62 nM.

`C[C@@H]1CN(c2ccc(C#N)n3nccc23)C[C@H](CN2Cc3ccc(C4CCNC4)cc3C2)O1` (stereo partly drawn) [Example 9, 4-[(2R,6S)-2-methyl-6-[(5-pyrrolidin-3-ylisoindolin-2-yl)methyl]morpholin-4-yl]pyrazolo[1,5-a]pyridine-7-carbonitrile]: the IC50 came to 64 nM.

Take `C[C@@H]1CN(c2ccc(C#N)n3nccc23)C[C@H](CN2CCc3cc(N4CCNCC4)ccc3C2)O1` [Example 10, 4-[(2R,6S)-2-methyl-6-[(6-piperazin-1-yl-3,4-dihydro-1H-isoquinolin-2-yl)methyl]morpholin-4-yl]pyrazolo[1,5-a]pyridine-7-carbonitrile]: the IC50 was determined as 67 nM.

On to `C[C@@H]1CN(c2ccc(C#N)n3nccc23)C[C@H](CN2CCc3ccc(N4CCNCC4)cc3C2)O1` [Example 11, 4-[(2R,6S)-2-methyl-6-[(7-piperazin-1-yl-3,4-dihydro-1H-isoquinolin-2-yl)methyl]morpholin-4-yl]pyrazolo[1,5-a]pyridine-7-carbonitrile], for which the IC50 was 60 nM.

Consider `C[C@@H]1CN(c2ccc(C#N)c3nccnc23)C[C@H](CN2Cc3ccc(N4CCNCC4)cc3C2)O1` [Example 12, 8-[(2R,6S)-2-methyl-6-[(5-piperazin-1-ylisoindolin-2-yl)methyl]morpholin-4-yl]quinoxaline-5-carbonitrile], for which the IC50 stood at 52 nM.

For `C[C@@H]1CN(c2ccc(C#N)c3nccnc23)C[C@H](CN2CCc3cc(N4CCNCC4)ccc3C2)O1` [Example 13, 8-[(2R,6S)-2-methyl-6-[(6-piperazin-1-yl-3,4-dihydro-1H-isoquinolin-2-yl)methyl]morpholin-4-yl]quinoxaline-5-carbonitrile], the IC50 amounted to 54 nM.

Turning to `C[C@@H]1CN(c2ccc(C#N)n3ncc(F)c23)C[C@H](CN2CCc3cc(N4CCNCC4)ccc3C2)O1` [Example 14, 3-fluoro-4-[(2R,6S)-2-methyl-6-[(6-piperazin-1-yl-3,4-dihydro-1H-isoquinolin-2-yl)methyl]morpholin-4-yl]pyrazolo[1,5-a]pyridine-7-carbonitrile], the IC50 was found to be 117 nM.

With `C[C@@H]1CN(c2ccc(C#N)n3nccc23)C[C@H](CN2CCc3cc(N4CCN(C)CC4)ccc3C2)O1` [Example 15, 4-[(2R,6S)-2-methyl-6-[[6-(4-methylpiperazin-1-yl)-3,4-dihydro-1H-isoquinolin-2-yl]methyl]morpholin-4-yl]pyrazolo[1,5-a]pyridine-7-carbonitrile], the IC50 was 46 nM.

Regarding `C[C@@H]1CN(c2ccc(C#N)n3nccc23)C[C@H](CN2Cc3ccc(N4CCN(C)CC4)cc3C2)O1` [Example 17, 4-[(2R,6S)-2-methyl-6-[[5-(4-methylpiperazin-1-yl)isoindolin-2-yl]methyl]morpholin-4-yl]pyrazolo[1,5-a]pyridine-7-carbonitrile], the IC50 came to 48 nM.

As for `C[C@@H]1CN(c2ccc(C#N)n3nccc23)C[C@H](CN2Cc3cc(N4CCNCC4)cnc3C2)O1` [Example 18, 4-[(2R,6S)-2-methyl-6-[(3-piperazin-1-yl-5,7-dihydropyrrolo[3,4-b]pyridin-6-yl)methyl]morpholin-4-yl]pyrazolo[1,5-a]pyridine-7-carbonitrile], the IC50 was found to be 48 nM.

On to `C[C@@H]1CN(c2ccc(C#N)c3ncccc23)C[C@H](CN2Cc3cc(N4CCNCC4)cnc3C2)O1` [Example 20, 5-[(2R,6S)-2-methyl-6-[(3-piperazin-1-yl-5,7-dihydropyrrolo[3,4-b]pyridin-6-yl)methyl]morpholin-4-yl]quinoline-8-carbonitrile], for which the IC50 turned out to be 48 nM.

In the case of `C[C@@H]1CN(c2ccc(C#N)c3ncsc23)C[C@H](CN2Cc3ccc(N4CCNCC4)cc3C2)O1` [Example 23, 7-[(2R,6S)-2-methyl-6-[(5-piperazin-1-ylisoindolin-2-yl)methyl]morpholin-4-yl]-1,3-benzothiazole-4-carbonitrile], the IC50 is 75 nM.

With `C[C@@H]1CN(c2ccc(C#N)c3ncsc23)C[C@H](CN2CCc3cc(N4CCNCC4)ccc3C2)O1` [Example 24, 7-[(2R,6S)-2-methyl-6-[(6-piperazin-1-yl-3,4-dihydro-1H-isoquinolin-2-yl)methyl]morpholin-4-yl]-1,3-benzothiazole-4-carbonitrile], the IC50 came to 81 nM.

As for `C[C@@H]1CN(c2ccc(C#N)c3ncsc23)C[C@H](CN2Cc3cc(N4CCNCC4)cnc3C2)O1` [Example 25, 7-[(2R,6S)-2-methyl-6-[(3-piperazin-1-yl-5,7-dihydropyrrolo[3,4-b]pyridin-6-yl)methyl]morpholin-4-yl]-1,3-benzothiazole-4-carbonitrile], the IC50 was found to be 63 nM.

In the case of `C[C@@H]1CN(c2ccc(C#N)n3nccc23)C[C@H](CN2Cc3ccc(OCCN(C)C)cc3C2)O1` [Example 28, 4-[(2S,6R)-2-[[5-[2-(dimethylamino)ethoxy]isoindolin-2-yl]methyl]-6-methyl-morpholin-4-yl]pyrazolo[1,5-a]pyridine-7-carbonitrile], the IC50 was determined as 93 nM.

As for `C[C@@H]1CN(c2ccc(C#N)n3ncc(F)c23)C[C@H](CN2Cc3cc(N4CCNCC4)cnc3C2)O1` [Example 29, 3-fluoro-4-[(2R,6S)-2-methyl-6-[(3-piperazin-1-yl-5,7-dihydropyrrolo[3,4-b]pyridin-6-yl)methyl]morpholin-4-yl]pyrazolo[1,5-a]pyridine-7-carbonitrile], the IC50 was determined as 134 nM.

For `C[C@@H]1CN(c2ccc(C#N)c3nccnc23)C[C@H](CN2Cc3cc(N4CCNCC4)cnc3C2)O1` [Example 30, 8-[(2R,6S)-2-methyl-6-[(3-piperazin-1-yl-5,7-dihydropyrrolo[3,4-b]pyridin-6-yl)methyl]morpholin-4-yl]quinoxaline-5-carbonitrile], the IC50 worked out at 136 nM.
